Test results: the supplement of paper PMC10307832

Columns and labels:
Experiment in all cases: relative viability (nuclei count vs DMSO), 5 days (fraction); higher = more cells survive
COR-L 105 = tested on: COR-L 105
In short: (§1)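 Lung cancer cell lines were pin-tool dosed in 1536-well plates on the day after seeding, with either a lone drug or a fixed anchor-drug dose plus five library-drug doses (not always all listed) in √10 steps. Nuclei were counted on 4× images after 5 days. Relative viability is the ratio of treated-well to vehicle-well nuclei counts, with each value a median of duplicate plates.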

COR-L23 = tested on: COR-L23
In short: as §1

HARA = tested on: HARA
In short: as §1

HCC-15 = tested on: HCC-15
In short: as §1

HOP-62 = tested on: HOP-62
In short: as §1

NCI-H1355 = tested on: NCI-H1355
In short: as §1

NCI-H1395 = tested on: NCI-H1395
In short: as §1

NCI-H1734 = tested on: NCI-H1734
In short: as §1

NCI-H1755 = tested on: NCI-H1755
In short: as §1

NCI-H1793 = tested on: NCI-H1793
In short: as §1

NCI-H1993 = tested on: NCI-H1993
In short: as §1

NCI-H2009 = tested on: NCI-H2009
In short: as §1

NCI-H2170 = tested on: NCI-H2170
In short: as §1

NCI-H2228 = tested on: NCI-H2228
In short: as §1

NCI-H2347 = tested on: NCI-H2347
In short: as §1

NCI-H358 = tested on: NCI-H358
In short: as §1

NCI-H522 = tested on: NCI-H522
In short: as §1

NCI-H647 = tested on: NCI-H647
In short: as §1

NCI-H838 = tested on: NCI-H838
In short: as §1

SK-MES-1 = tested on: SK-MES-1
In short: as §1

UMC-11 = tested on: UMC-11
In short: as §1

Compound `COc1cc2nccc(Oc3ccc(NC(=O)Nc4cc(C)on4)c(Cl)c3)c2cc1OC` [Tivozanib] + Cc1cc(Nc2cc(N3CCN(C)CC3)nc(Sc3ccc(NC(=O)C4CC4)cc3)n2)n[nH]1 [Tozasertib] (partner 0.1 µM) has a relative viability (COR-L 105; first compound 0.005 µM) of 0.366, a relative viability (COR-L 105; first compound 0.01581 µM) of 0.371 and a relative viability (COR-L 105; first compound 0.05 µM) of 0.406. The relative viability (COR-L 105; first compound 0.1581 µM) was 0.374, the relative viability (COR-L 105; first compound 0.5 µM) was 0.493 and the relative viability (COR-L23; first compound 0.005 µM) was 0.172. For the same compound, the relative viability (COR-L23; first compound 0.01581 µM) was 0.218, the relative viability (COR-L23; first compound 0.05 µM) was 0.363 and the relative viability (COR-L23; first compound 0.1581 µM) was 0.268. It also gave a relative viability (COR-L23; first compound 0.5 µM) of 0.228, a relative viability (HARA; first compound 0.005 µM) of 0.113 and a relative viability (HARA; first compound 0.01581 µM) of 0.107. For the same compound, the relative viability (HARA; first compound 0.05 µM) was 0.112, the relative viability (HARA; first compound 0.1581 µM) was 0.133 and the relative viability (HARA; first compound 0.5 µM) was 0.145. For the same compound, the relative viability (HCC-15; first compound 0.005 µM) was 0.411, the relative viability (HCC-15; first compound 0.01581 µM) was 0.419 and the relative viability (HCC-15; first compound 0.05 µM) was 0.496. It also gave a relative viability (HCC-15; first compound 0.1581 µM) of 0.415, a relative viability (HCC-15; first compound 0.5 µM) of 0.354 and a relative viability (HOP-62; first compound 0.005 µM) of 0.349. It also gave a relative viability (HOP-62; first compound 0.01581 µM) of 0.384, a relative viability (HOP-62; first compound 0.05 µM) of 0.422 and a relative viability (HOP-62; first compound 0.1581 µM) of 0.391. The relative viability (HOP-62; first compound 0.5 µM) was 0.362, the relative viability (NCI-H1355; first compound 0.005 µM) was 0.515 and the relative viability (NCI-H1355; first compound 0.01581 µM) was 0.576. It also gave a relative viability (NCI-H1355; first compound 0.05 µM) of 0.57, a relative viability (NCI-H1355; first compound 0.1581 µM) of 0.614 and a relative viability (NCI-H1355; first compound 0.5 µM) of 0.53. It also gave a relative viability (NCI-H1395; first compound 0.005 µM) of 0.734, a relative viability (NCI-H1395; first compound 0.01581 µM) of 0.738 and a relative viability (NCI-H1395; first compound 0.05 µM) of 0.81. It also gave a relative viability (NCI-H1395; first compound 0.1581 µM) of 0.681, a relative viability (NCI-H1395; first compound 0.5 µM) of 0.807 and a relative viability (NCI-H1734; first compound 0.005 µM) of 0.24. The relative viability (NCI-H1734; first compound 0.01581 µM) was 0.258, the relative viability (NCI-H1734; first compound 0.05 µM) was 0.26 and the relative viability (NCI-H1734; first compound 0.1581 µM) was 0.275. It also gave a relative viability (NCI-H1734; first compound 0.5 µM) of 0.252, a relative viability (NCI-H1755; first compound 0.005 µM) of 0.565 and a relative viability (NCI-H1755; first compound 0.01581 µM) of 0.581. It also gave a relative viability (NCI-H1755; first compound 0.05 µM) of 0.588, a relative viability (NCI-H1755; first compound 0.1581 µM) of 0.666 and a relative viability (NCI-H1755; first compound 0.5 µM) of 0.531. It also gave a relative viability (NCI-H1793; first compound 0.005 µM) of 0.335, a relative viability (NCI-H1793; first compound 0.01581 µM) of 0.45 and a relative viability (NCI-H1793; first compound 0.05 µM) of 0.392. It also gave a relative viability (NCI-H1793; first compound 0.1581 µM) of 0.376, a relative viability (NCI-H1793; first compound 0.5 µM) of 0.359 and a relative viability (NCI-H1993; first compound 0.005 µM) of 0.559. It also gave a relative viability (NCI-H1993; first compound 0.01581 µM) of 0.585, a relative viability (NCI-H1993; first compound 0.05 µM) of 0.568 and a relative viability (NCI-H1993; first compound 0.1581 µM) of 0.485. It also gave a relative viability (NCI-H1993; first compound 0.5 µM) of 0.513, a relative viability (NCI-H2009; first compound 0.005 µM) of 0.708 and a relative viability (NCI-H2009; first compound 0.01581 µM) of 0.738. It also gave a relative viability (NCI-H2009; first compound 0.05 µM) of 0.733, a relative viability (NCI-H2009; first compound 0.1581 µM) of 0.725 and a relative viability (NCI-H2009; first compound 0.5 µM) of 0.759. For the same compound, the relative viability (NCI-H2170; first compound 0.005 µM) was 0.673, the relative viability (NCI-H2170; first compound 0.01581 µM) was 0.685 and the relative viability (NCI-H2170; first compound 0.05 µM) was 0.801. It also gave a relative viability (NCI-H2170; first compound 0.1581 µM) of 0.671, a relative viability (NCI-H2170; first compound 0.5 µM) of 0.784 and a relative viability (NCI-H2228; first compound 0.005 µM) of 0.232. For the same compound, the relative viability (NCI-H2228; first compound 0.01581 µM) was 0.235, the relative viability (NCI-H2228; first compound 0.05 µM) was 0.25 and the relative viability (NCI-H2228; first compound 0.1581 µM) was 0.26. For the same compound, the relative viability (NCI-H2228; first compound 0.5 µM) was 0.274, the relative viability (NCI-H2347; first compound 0.01581 µM) was 0.54 and the relative viability (NCI-H2347; first compound 0.05 µM) was 0.594. It also gave a relative viability (NCI-H2347; first compound 0.5 µM) of 0.511, a relative viability (NCI-H358; first compound 0.005 µM) of 0.0936 and a relative viability (NCI-H358; first compound 0.01581 µM) of 0.101. For the same compound, the relative viability (NCI-H358; first compound 0.05 µM) was 0.102, the relative viability (NCI-H358; first compound 0.1581 µM) was 0.102 and the relative viability (NCI-H358; first compound 0.5 µM) was 0.108. For the same compound, the relative viability (NCI-H522; first compound 0.005 µM) was 0.581, the relative viability (NCI-H522; first compound 0.01581 µM) was 0.553 and the relative viability (NCI-H522; first compound 0.05 µM) was 0.581. For the same compound, the relative viability (NCI-H522; first compound 0.1581 µM) was 0.536, the relative viability (NCI-H522; first compound 0.5 µM) was 0.577 and the relative viability (NCI-H647; first compound 0.005 µM) was 0.269. It also gave a relative viability (NCI-H647; first compound 0.01581 µM) of 0.203, a relative viability (NCI-H647; first compound 0.05 µM) of 0.263 and a relative viability (NCI-H647; first compound 0.1581 µM) of 0.332. The relative viability (NCI-H647; first compound 0.5 µM) was 0.302, the relative viability (NCI-H838; first compound 0.005 µM) was 0.268 and the relative viability (NCI-H838; first compound 0.01581 µM) was 0.291. The relative viability (NCI-H838; first compound 0.05 µM) was 0.29, the relative viability (NCI-H838; first compound 0.5 µM) was 0.291 and the relative viability (SK-MES-1; first compound 0.005 µM) was 0.801. It also gave a relative viability (SK-MES-1; first compound 0.01581 µM) of 0.888, a relative viability (SK-MES-1; first compound 0.05 µM) of 0.98 and a relative viability (SK-MES-1; first compound 0.1581 µM) of 0.901. The relative viability (SK-MES-1; first compound 0.5 µM) was 0.789, the relative viability (UMC-11; first compound 0.005 µM) was 0.208 and the relative viability (UMC-11; first compound 0.01581 µM) was 0.2. It also gave a relative viability (UMC-11; first compound 0.05 µM) of 0.198 and a relative viability (UMC-11; first compound 0.5 µM) of 0.211.
